Non-standard residues stand in square brackets, D forms with d. Residues, ends and D or L forms follow the SMILES beside them. ξ: configuration not given here. *: point of attachment. X1 = NC(=O)[C@H]1OC(N*)[C@H](O)[C@@H](O)[C@@H]1O; ξAoc(2) = CCCCCCC(N)C(=O)O
Tests used:
[1] = Apparent permeability across human Caco-2 cells; type: ADME, cell-based
[2] = Stability in Caco-2 cells after 2 hrs; type: ADME, cell-based; conditions: human, read-out: Stability
[3] = Stability in Caco-2 cells assessed as half life; type: ADME, cell-based, Colon; conditions: human
[4] = Stability in Caco-2 cells after 20 mins; type: ADME, cell-based; conditions: human, read-out: Stability

Papp [1] | remaining at 2 h [2] | half-life [3] | remaining at 20 min [4] | SMILES
16.3 ×10⁻⁶ cm/s | 20% | 20 min | – | CCCCCCC(N)C(=O)N[C@@H](CCC(N)=O)C(=O)N[C@@H](Cc1cnc[nH]1)C(=O)N1CCC[C@H]1C(=O)NC1O[C@H](C(N)=O)[C@@H](O)[C@H](O)[C@H]1O (stereo not given in full) (H-[ξAoc(2)]QHP-X1)
0.0825 ×10⁻⁶ cm/s | – | – | – | OC[C@@H](O)[C@@H](O)[C@H](O)[C@H](O)CO [MANNITOL]
5.1 ×10⁻⁶ cm/s | 20% | 20 min | – | NC(=O)[C@H]1OC(NC(=O)[C@@H]2CCCN2C(=O)[C@H](Cc2cnc[nH]2)NC(=O)[C@@H]2CCC(=O)N2)[C@H](O)[C@@H](O)[C@@H]1O (stereo not given in full)
0.147 ×10⁻⁶ cm/s | – | 3 min | < 5% | NC(=O)[C@@H]1CCCN1C(=O)[C@H](Cc1cnc[nH]1)NC(=O)[C@@H]1CCC(=O)N1 [PROTIRELIN]
